Patent publication US10647713B2 (Nimbus Lakshmi, Inc., priority 2016, dated 2020)

These compounds were tested against human TYK2 (JH2domain-pseudokinase) (Homo sapiens (Human), UniProt P29597) (assay: TYK2 JH2 Domain Binding Assay (KINOMEscan, DiscoveRx)). Conditions: 11-point dilution, duplicate.
How it was run: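 TYK2 JH2 (G556–D888)–NFkB DBD fusion, DNA-tagged, from HEK293 extracts (<0.1 nM) competed against immobilised biotinylated ligand for 1 h at room temperature, 0.9% DMSO. Bead-retained kinase quantified by qPCR; Kd from 11-point 3-fold series (top 30,000 nM, duplicate), Hill fit with slope −1.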

Sequence of human TYK2 (JH2domain-pseudokinase) (P29597 556-888): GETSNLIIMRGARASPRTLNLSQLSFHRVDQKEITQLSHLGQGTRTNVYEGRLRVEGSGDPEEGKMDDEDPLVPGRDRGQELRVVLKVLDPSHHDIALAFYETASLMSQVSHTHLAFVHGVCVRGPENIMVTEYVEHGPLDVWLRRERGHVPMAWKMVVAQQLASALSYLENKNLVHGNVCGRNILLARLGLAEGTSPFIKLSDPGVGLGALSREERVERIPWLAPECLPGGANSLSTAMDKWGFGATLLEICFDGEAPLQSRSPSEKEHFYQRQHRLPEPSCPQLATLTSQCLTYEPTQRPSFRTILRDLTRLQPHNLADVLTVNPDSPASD

Kd [nM]	Compound
0.1 to 0.5	Cc1cc(Nc2cc(Nc3ccc([C@@H]4CCCCO4)cc3S(C)(=O)=O)c3nc(C(F)F)[nH]c3n2)nc(C)n1 [I-505, (S)-2-(difluoromethyl)-N5-(2,6-dimethylpyrimidin-4-yl)-N7-(2-(methylsulfonyl)-4-(tetrahydro-2H-pyran-2-yl)phenyl)-3H-imidazo[4,5-b]pyridine-5,7-diamine]
0.5 to 1	CN(c1cc(-c2cnn(C)c2)ccc1Nc1cc(NC(=O)[C@@H]2CC2(F)F)nc2[nH]c(C(F)F)nc12)S(C)(=O)=O [I-230, (S)—N-(2-(difluoromethyl)-7-((4-(1-methyl-1H-pyrazol-4-yl)-2-(N-methylmethylsulfonamido)phenyl)amino)-3H-imidazo[4,5-b]pyridin-5-yl)-2,2-difluorocyclopropane-1-carboxamide]
1 to 10	Cc1nc2c(Nc3ccc(-c4ccn(C)n4)cc3S(C)(=O)=O)cc(NC(=O)[C@H]3CC3(F)F)nc2[nH]1 [I-240, (R)-2,2-difluoro-N-(2-methyl-7-((4-(1-methyl-1H-pyrazol-3-yl)-2-(methylsulfonyl)phenyl)amino)-3H-imidazo[4,5-b]pyridin-5-yl)cyclopropane-1-carboxamide]
0.1 to 0.5	Cc1nc2c(Nc3ccc(-c4cc(C)n(C)n4)cc3S(C)(=O)=O)cc(Nc3cccc(C#N)n3)nc2[nH]1 [I-583, 6-((7-((4-(1,5-dimethyl-1H-pyrazol-3-yl)-2-(methylsulfonyl)phenyl)amino)-2-methyl-3H-imidazo[4,5-b]pyridin-5-yl)amino)picolinonitrile]
0.1 to 0.5	Cc1nc2c(Nc3ccc([C@H]4CCCCO4)cc3S(C)(=O)=O)cc(Nc3cc4n(n3)CCOC4)nc2[nH]1 [I-587, (R)—N5-(6,7-dihydro-4H-pyrazolo[5,1-c][1,4]oxazin-2-yl)-2-methyl-N7-(2-(methylsulfonyl)-4-(tetrahydro-2H-pyran-2-yl)phenyl)-3H-imidazo[4,5-b]pyridine-5,7-diamine]
1 to 10	CN=[S@@](C)(=O)c1ccccc1Nc1cc(NC(=O)C2CC2)nc2[nH]c(C)nc12 [I-549, N-(7-((2-(N,S-dimethylsulfonimidoyl)phenyl)amino)-2-methyl-3H-imidazo[4,5-b]pyridin-5-yl)cyclopropanecarboxamide]
< 0.1	Cc1nc2c(Nc3ccc(F)cc3S(C)(=O)=O)cc(Nc3cc4c(nn3)CCC4)nc2[nH]1 [I-639]
0.5 to 1	Cn1ccc(-c2ccc(Nc3cc(NC(=O)C4CC4(F)F)nc4[nH]c(C(F)F)nc34)c(S(C)(=O)=O)c2)n1 (centres unmarked) [I-386, N-(2-(difluoromethyl)-7-((4-(1-methyl-1H-pyrazol-3-yl)-2-(methylsulfonyl)phenyl)amino)-3H-imidazo[4,5-b]pyridin-5-yl)-2,2-difluorocyclopropane-1-carboxamide]

Compound	Kd [nM]
COc1c(Nc2cc(Nc3ccc(C(=O)N4CCCC4)c(C(F)(F)F)n3)nc3[nH]c(C)nc23)cccc1-c1nnn(C)n1 [I-108, (6-((7-((2-methoxy-3-(2-methyl-2H-tetrazol-5-yl)phenyl)amino)-2-methyl-3H-imidazo[4,5-b]pyridin-5-yl)amino)-2-(trifluoromethyl)pyridin-3-yl)(pyrrolidin-1-yl)methanone]	0.1 to 0.5
CS(=O)(=O)c1cc([C@H]2CCCCO2)ccc1Nc1cc(NC(=O)[C@@H]2CC2(F)F)nc2[nH]c(C(F)F)nc12 [I-281, (S)—N-(2-(difluoromethyl)-7-((2-(methylsulfonyl)-4-((R)-tetrahydro-2H-pyran-2-yl)phenyl)amino)-3H-imidazo[4,5-b]pyridin-5-yl)-2,2-difluorocyclopropane-1-carboxamide]	1 to 10
Cn1ccc(-c2ccc(Nc3cc(NC(=O)C4CC4)nc4[nH]c(C(F)F)nc34)c(S(C)(=O)=O)c2)n1 [I-148, N-(2-(difluoromethyl)-7-((4-(1-methyl-1H-pyrazol-3-yl)-2-(methylsulfonyl)phenyl)amino)-3H-imidazo[4,5-b]pyridin-5-yl)cyclopropanecarboxamide]	0.1 to 0.5
